# Measurements published in patent publication US20230265247A1, “PROCESS FOR PREPARING POLYIMIDES” (Technische Universität Wien, priority 2020, published 2023).
# Assay: not given
# Conditions: according to perflavory.com; cited from earlier work
row,Compound,water solubility of the diamine
1,"CC1CC(CC2CCC(N)C(C)C2)CCC1N (stereo not shown) [4,4′-methylene-bis(2-methylcyclohexylamine)]",around 88 mg/l

# Same assay, conditions: cited in Wikipedia; cited from earlier work
row,Compound,water solubility of the diamine
1,"NC1CCC(CC2CCC(N)CC2)CC1 (stereo not shown) [4,4′-methylene-bis(cyclohexylamine)]",about 4 g/l

# Assay: not given
# Conditions: salts of 1,2,3,4-butanetetracarboxylic acid; 1 ml distilled water with around 20 to 40% by weight of salt, stirred 15 minutes
row,Compound,Salt is water-soluble
1,Nc1n[nH]c(N)n1 [Example V38],no
2,Nc1ccc(Cc2ccc(N)cc2)cc1 [Example V39],no
3,"Tricyclo[5.2.1.0^2,6]decane-3(4),8(9)-bis(methanammonium)-dihydrogen-1,2,3,4-butane-tetracarboxylate [Example B20]",yes

# Same assay, conditions: salts of 1,2,3,4-cyclobutanetetracarboxylic acid; 1 ml distilled water with around 20 to 40% by weight of salt, stirred 15 minutes
row,Compound,Salt is water-soluble
1,"NCC1CC2CC1CC2CN.O=C(O)C1C(C(=O)O)C(C(=O)O)C1C(=O)O (stereo not shown) [Example B21, Norbornane bis(methylammonium)-dihydrogen-1,2,3,4-cyclobutanetetracarboxylate]",yes
2,NCCCCN.O=C(O)C1C(C(=O)O)C(C(=O)O)C1C(=O)O (stereo not shown) [Example V42],yes
3,CC1(C)CC(N)CC(C)(CN)C1.O=C(O)C1C(C(=O)O)C(C(=O)O)C1C(=O)O (stereo not shown) [Example V54],yes
4,NCc1cccc(CN)c1.O=C(O)C1C(C(=O)O)C(C(=O)O)C1C(=O)O (stereo not shown) [Example V55],yes
5,"Tricyclo[5.2.1.0^2,6]decane-3(4),8(9)-bis(methanammonium)-dihydrogen-1,2,3,4-cyclobutanetetracarboxylate [Example B22]",yes

# Same assay, conditions: salts of 1,2,3,4-cyclopentanetetracarboxylic acid; 1 ml distilled water with around 20 to 40% by weight of salt, stirred 15 minutes
row,Compound,Salt is water-soluble
1,"NCC1CC2CC1CC2CN.O=C(O)C1CC(C(=O)O)C(C(=O)O)C1C(=O)O (stereo not shown) [Example B23, Norbornane bis(methylammonium)-dihydrogen-1,2,3,4-cyclopentanetetracarboxylate]",yes
2,NCCCCN.O=C(O)C1CC(C(=O)O)C(C(=O)O)C1C(=O)O (stereo not shown) [Example V57],yes
3,CC(CN)CCCN.O=C(O)C1CC(C(=O)O)C(C(=O)O)C1C(=O)O (stereo not shown) [Example V60],yes
4,NCCCCCCCCCN.O=C(O)C1CC(C(=O)O)C(C(=O)O)C1C(=O)O (stereo not shown) [Example V63],yes
5,CC1(C)CC(N)CC(C)(CN)C1.O=C(O)C1CC(C(=O)O)C(C(=O)O)C1C(=O)O (stereo not shown) [Example V69],yes
6,"Tricyclo[5.2.1.0^2,6]decane-3(4),8(9)-bis(methanammonium)-dihydrogen-1,2,3,4-cyclopentanetetracarboxylate [Example B24]",yes

# Same assay, conditions: salts of 1,2,4,5-cyclohexanetetracarboxylic acid; 1 ml distilled water with around 20 to 40% by weight of salt, stirred 15 minutes
row,Compound,Salt is water-soluble
1,NCCCCN.O=C(O)C1CC(C(=O)O)C(C(=O)O)CC1C(=O)O (stereo not shown) [Example V72],yes
2,NCCCCCCCCCN.O=C(O)C1CC(C(=O)O)C(C(=O)O)CC1C(=O)O (stereo not shown) [Example V78],yes
3,CC1(C)CC(N)CC(C)(CN)C1.O=C(O)C1CC(C(=O)O)C(C(=O)O)CC1C(=O)O (stereo not shown) [Example V84],yes
4,NCc1cccc(CN)c1 [Example V85],yes
5,"Norbornane bis(methylammonium)-dihydrogen-1,2,4,5-cyclohexanetetracarboxylate [Example B25]",yes
6,"Tricyclo[5.2.1.0^2,6]decane-3(4),8(9)-bis(methanammonium)-dihydrogen-1,2,4,5-cyclohexanetetracarboxylate [Example B26]",yes

# Same assay, conditions: salts of 3,3′,4,4′-benzophenonetetracarboxylic acid; 1 ml distilled water with around 20 to 40% by weight of salt, stirred 15 minutes
row,Compound,Salt is water-soluble
1,NCCCCN.O=C(c1ccc(C(=O)O)c(C(=O)O)c1)c1ccc(C(=O)O)c(C(=O)O)c1 [Example V86],no
2,CC(C)(CN)CN.O=C(c1ccc(C(=O)O)c(C(=O)O)c1)c1ccc(C(=O)O)c(C(=O)O)c1 [Example V88],yes
3,NCCCCCCCCCCCCN.O=C(c1ccc(C(=O)O)c(C(=O)O)c1)c1ccc(C(=O)O)c(C(=O)O)c1 [Example V94],no
4,CC1(C)CC(N)CC(C)(CN)C1.O=C(c1ccc(C(=O)O)c(C(=O)O)c1)c1ccc(C(=O)O)c(C(=O)O)c1 [Example V95],yes
5,CC1CC(CC2CCC(N)C(C)C2)CCC1N.O=C(c1ccc(C(=O)O)c(C(=O)O)c1)c1ccc(C(=O)O)c(C(=O)O)c1 [Example V97],yes
6,Nc1cccc(N)n1 [Example V104],no
7,"Norbornane bis(methylammonium)-dihydrogen-3,3′,4,4′-benzophenonetetracarboxylate [Example B27]",yes
8,"Tricyclo[5.2.1.0^2,6]decane-3(4),8(9)-bis(methanammonium)-dihydrogen-3,3′,4,4′-benzophenonetetracarboxylate [Example B28]",yes

# Same assay, conditions: salts of tetrahydrofuran-2,3,4,5-tetracarboxylic acid; 1 ml distilled water with around 20 to 40% by weight of salt, stirred 15 minutes; no = no clear solution
row,Compound,Salt is water-soluble
1,"NCCCCN.O=C(O)C1OC(C(=O)O)C(C(=O)O)C1C(=O)O (stereo not shown) [Example B2, Butane-1,4-diammonium-dihydrogen-tetrahydrofuran-2,3,4,5-tetracarboxylate]",yes
2,"NCCCCCN.O=C(O)C1OC(C(=O)O)C(C(=O)O)C1C(=O)O (stereo not shown) [Example B3, Pentane-1,5-diammonium-dihydrogen-tetrahydrofuran-2,3,4,5-tetracarboxylate]",yes
3,"CC(C)(CN)CN.O=C(O)C1OC(C(=O)O)C(C(=O)O)C1C(=O)O (stereo not shown) [Example B4, 2,2-Dimethylpropane-1,3-diammonium-dihydrogen-tetrahydrofuran-2,3,4,5-tetracarboxylate]",yes
4,"CC(CN)CCCN.O=C(O)C1OC(C(=O)O)C(C(=O)O)C1C(=O)O (stereo not shown) [Example B6, 2-Methylpentane-1,5-diammonium-dihydrogen-tetrahydrofuran-2,3,4,5-tetracarboxylate]",yes
5,"NCCCCCCCN.O=C(O)C1OC(C(=O)O)C(C(=O)O)C1C(=O)O (stereo not shown) [Example B7, Heptane-1,7-diammonium-dihydrogen-tetrahydrofuran-2,3,4,5-tetracarboxylate]",yes
6,"NCCCCCCCCN.O=C(O)C1OC(C(=O)O)C(C(=O)O)C1C(=O)O (stereo not shown) [Example B8, Octane-1,8-diammonium-dihydrogen-tetrahydrofuran-2,3,4,5-tetracarboxylate]",yes
7,"NCCCCCCCCCN.O=C(O)C1OC(C(=O)O)C(C(=O)O)C1C(=O)O (stereo not shown) [Example B9, Nonane-1,9-diammonium-dihydrogen-tetrahydrofuran-2,3,4,5-tetracarboxylate]",yes
8,"NC1CCCC(N)C1.O=C(O)C1OC(C(=O)O)C(C(=O)O)C1C(=O)O (stereo not shown) [Example B11, Cyclohexane-1,3-diammonium-dihydrogen-tetrahydrofuran-2,3,4,5-tetracarboxylate]",yes
9,"NC1CCC(N)CC1.O=C(O)C1OC(C(=O)O)C(C(=O)O)C1C(=O)O (stereo not shown) [Example B12, Cyclohexane-1,4-diammonium-dihydrogen-tetrahydrofuran-2,3,4,5-tetracarboxylate]",yes
10,"NCC1CCCC(CN)C1.O=C(O)C1OC(C(=O)O)C(C(=O)O)C1C(=O)O (stereo not shown) [Example B13, Cyclohexane-1,3-bis(methanammonium)-dihydrogen-tetrahydrofuran-2,3,4,5-tetracarboxylate]",yes
11,"NCC1CCC(CN)CC1.O=C(O)C1OC(C(=O)O)C(C(=O)O)C1C(=O)O (stereo not shown) [Example B14, Cyclohexane-1,4-bis(methanammonium)-dihydrogen-tetrahydrofuran-2,3,4,5-tetracarboxylate]",yes
12,"CC1(C)CC(N)CC(C)(CN)C1.O=C(O)C1OC(C(=O)O)C(C(=O)O)C1C(=O)O (stereo not shown) [Example B16, Isophorone diammonium-dihydrogen-tetrahydrofuran-2,3,4,5-tetracarboxylate]",yes
13,"CC1CC(CC2CCC(N)C(C)C2)CCC1N.O=C(O)C1OC(C(=O)O)C(C(=O)O)C1C(=O)O (stereo not shown) [Example B18, 4,4′-Methylene-bis(2-methylcyclohexylammonium)-dihydrogen-tetrahydrofuran-2,3,4,5-tetracarboxylate]",yes
14,NC1CCC(CC2CCC(N)CC2)CC1.O=C(O)C1OC(C(=O)O)C(C(=O)O)C1C(=O)O (stereo not shown) [Example V2],no
15,Cc1ccc(N)cc1N [Example V7],no
16,Nc1cccc(N)n1.O=C(O)C1OC(C(=O)O)C(C(=O)O)C1C(=O)O (stereo not shown) [Example V9],no
17,Nc1ccc(Cc2ccc(N)cc2)cc1.O=C(O)C1OC(C(=O)O)C(C(=O)O)C1C(=O)O (stereo not shown) [Example V11],no
18,Cc1cc(-c2ccc(N)c(C)c2)ccc1N [Example V12],no

# Assay: Water solubility of the diamines, literature values
# Format: physicochemical
# Conditions: ratio of cited solubilities
row,Compound,"water solubility less by a factor, versus 4,4′-methylene-bis(cyclohexylamine)"
1,"CC1CC(CC2CCC(N)C(C)C2)CCC1N (stereo not shown) [4,4′-methylene-bis(2-methylcyclohexylamine)]",45
